Experimental data as given in patent US9994824B2, “Method for promoting hair growth using composition comprising PDGF-D treated adipose-derived stem cells” (INDUSTRY-ACADEMIC COOPERATION FOUNDATION, YONSEI UNIVERSITY, priority 2015, dated 2018).

B1: PDGF-B: PDGF isoform growth factor protein, purchased from Sigma (protein, UniProt P01127 82-190, looked up)
Platelet-derived growth …: SLGSLTIAEPAMIAECKTRTEVFEISRRLIDRTNANFLVWPPCVEVQRCSGCCNNRNVQCRPTQVQLRPVQVRKIEIVRKKPIFKKATVTLEDHLACKCETVAAARPVT

What was measured:
[1] = test system: ASCs; experiment: cell proliferation assay (CCK-8 cell numbers); assay type: cell-based, human; conditions: for proliferation of ASCs increased by PDGF-D, effect of inhibitor: inhibitor treatment of PDGF-D-treated ASCs
Procedure: (§1) Human ASCs were obtained from a subcutaneous fat by liposuction according to a known method (Kim et al. J Dermatol Sci 53:96-102, 2009). ASCs were cultured in an α-MEM medium (Hyclone, Thermo Scientific) with 10% FBS (GIBCO, Invitrogen) and 1% penicillin/streptomycin (GIBCO) at 37° C. in 5% CO2, and cells at 7-9 passages were used. Positive expression of CD44, CD73, CD90, CD105, HLA-1 and PODXL and negative expression of CD34 and CD45 were examined by flow cytometry (Kim et al. Cell Death Dis 4:e588, 2013; Kim et al., Cell Biol Int 38:32-40, 2014), and multipotent differentiation potential for the cells to differentiate into adipocytes, osteocytes and cartilage cells was examined (Song et al. Stem Cells Dev 17:451-461, 2008).
For cell proliferation assay, 7×10^3 of ASCs were seeded on 48-well plates, 24 hours later, a medium was transferred with a 0.2% FBS-containing α-MEM medium, and the following day, cells were treated with PDGF isoforms (10 ng/ml) for 48 hours. Afterward, the medium was removed, the cells were treated with a 10% CCK-8 solution for 2 hours using a CCK-8 assay kit (Dojindo, Japan), and the absorbance was measured at 450 nm, to examine cell numbers.

[2] = test system: ASCs; experiment: cell migration assay (trans-well); assay type: cell-based, human; conditions: for migration of ASCs increased by PDGF-D, effect of inhibitor: inhibitor treatment of PDGF-D-treated ASCs
Procedure: as §1
Also, for cell migration assay, 2×10^4/well of ASCs were seeded on the upper portion of a trans-well membrane plate (Corning, USA). After 2 hours, PDGF isoforms (10 ng/ml) and an α-MEM medium with 0.2% FBS were introduced to the lower portion of the trans-well membrane plate to culture the PDGF isoforms for 16 to 20 hours. Afterward, cells migrated to the trans-well membrane were fixed with cold ethanol for 20 minutes, and stained with 10% crystal-violet (Sigma, USA) at room temperature for 30 minutes.

[3] = test system: mitochondria of ASCs; experiment: mitochondrial fission (MitoTracker Red, confocal microscope); assay type: cell-based, human; conditions: PDGF-D-treated ASCs plus inhibitor
Procedure: ASCs were seeded on a round cover glass and treated with PDGF-D (10 ng/ml) for 24 hours. For mitochondrial staining, 500 nM MitoTracker Red (Molecular Probe, USA) was added to an α-MEM medium, and cells were incubated for 30 minutes, and then the morphology of mitochondria and MitoTracker Red fluorescence were examined using a confocal microscope (Carl Zeiss). In addition, for nuclear staining, cells were fixed with 4% paraformaldehyde for 15 minutes, permeabilized with 0.5% PBS-T for 5 minutes, and stained with DAPI (Sigma, USA) at room temperature for 10 minutes.

[4] = test system: ROS generation in ASCs; experiment: intracellular ROS generation using DCF-DA; assay type: cell-based, human; conditions: PDGF-D-treated ASCs plus inhibitor
Procedure: ROS generation in cells were measured by a method using DCF-DA (Molecular probe, USA) (Kim et al., Stem Cells Dev 21:2212-2221, 2012; Kim et al., Stem Cells Dev 20:1753-1761, 2011), and mitochondrial ROS generation was measured using Mito-Sox (Molecular probe, USA). ASCs were seeded on 60-mm dishes, treated with PDGF-D (10 ng/ml) and 5 μM Mito-Sox and incubated in a dark place for 2 hours, and then flow cytometry was performed.

[5] = test system: BCL2A1; experiment: BCL2A1 mRNA expression (PCR array, qPCR); assay type: cell-based, human; conditions: PDGF-D-treated ASCs plus inhibitor
Procedure: (§2) In this example, PDGF-D target genes were examined using a human signaling pathwayfinder RT^2 profiler PCR array (signaling pathway: PAHS-041ZD).
(§3) 2.5×10^5 of ASCs were seeded on 60-mm dishes, cultured in a 0.2% FBS-containing α-MEM medium, and treated with PDGF-D for 4-24 hours. Afterward, total RNA was extracted using an RNA extraction kit (RNeasy, Qiagen), cDNA was synthesized from 500 ng of total RNA by a cDNA synthesis kit (A3500, Promega) using 1,000 U reverse transcriptase and 50 ng/μl oligo(dT) primers. Gene expression was detected by a PCR array kit (Qiagen) according to the manufacturer's instructions, and qPCR was performed on a step one plus real-time PCR system (Applied Biosystems, Invitrogen) using a SYBR Green PCR master mix (Takara Bio, Japan).

[6] = test system: SERPINE1; experiment: SERPINE1 mRNA expression (PCR array, qPCR); assay type: cell-based, human; conditions: PDGF-D-treated ASCs plus inhibitor
Procedure: as §2, §3

[7] = test system: growth factors VEGFA, FGF1, FGF5, BMP8B, LIF, INHBA, IL11 and HBEGF; experiment: growth factor expression (RT2 profiler PCR array of human growth factor, qPCR); assay type: cell-based
Procedure: Then, the paracrine effect of PDGF families was examined using an RT^2 profiler PCR array of a human growth factor (growth factor pathway: PAHS-041ZA).
The growth factor expression was measured by an RT^2 profiler PCR array (FIG. 9A).

| Molecule | proliferation of ASCs increased by PDGF-D, effect of inhibitor [1] | migration of ASCs increased by PDGF-D, effect of inhibitor [2] | DCF-DA fluorescence, effect of inhibitor/scavenger [4] | BCL2A1 expression, effect of inhibitor [5] | SERPINE1 expression, effect of inhibitor [6] | also measured |
| --- | --- | --- | --- | --- | --- | --- |
| COc1cc(-n2c(=S)[nH]c3ccccc3c2=O)c(Cl)cc1Cl [Mdivi-1] | considerably decreased | considerably decreased |  |  |  | mitochondrial fission induced by PDGF-D treatment, effect of inhibitor [3]: decreased |
| CC1(C)CC(C(=O)OCCCCCCCCCC[P+](c2ccccc2)(c2ccccc2)c2ccccc2)C(C)(C)N1O (stereo not drawn) [Mito-CP] | considerably decreased | considerably decreased | considerably decreased | no influence | considerably decreased |  |
| S=C(S)N1CCCC1 [PDTC] |  |  |  | decreased |  |  |
| N#CC(=C(/N)Sc1ccccc1N)/C(C#N)=C(\N)Sc1ccccc1N [U0126] | not influenced | not influenced |  |  |  | expression of a growth factor induced by PDGF-D, effect of inhibitor (PCR array) ([7]; 10 μM inhibitor, RT2 profiler PCR array): inhibited; expression of the growth factor induced by PDGF-D, effect of inhibitor (qPCR) ([7]; qPCR): inhibited |
| COCCOc1ccc2c(c1)ncn2-c1ccc2cccc(N3CCC(N)CC3)c2n1 [cp673451] |  |  | considerably decreased | decreased | decreased |  |
| B1 |  |  |  |  |  | cell proliferation (cell numbers) ([1]; PDGF isoforms 10 ng/ml, 48 hours, 0.2% FBS α-MEM): considerably enhanced twice or more; cell migration ([2]; PDGF isoforms 10 ng/ml, 16 to 20 hours, 0.2% FBS α-MEM): considerably enhanced twice or more |
